Reference: patent US9695154B2, “Heteroaryl inhibitors of sumo activating enzyme” (MILLENNIUM PHARMACEUTICALS, INC., priority 2013, dated 2017)

Target: T1, recombinant human SAE enzyme (Homo sapiens, UniProt Q9UBT2)
T1 sequence (Q9UBT2 1-640): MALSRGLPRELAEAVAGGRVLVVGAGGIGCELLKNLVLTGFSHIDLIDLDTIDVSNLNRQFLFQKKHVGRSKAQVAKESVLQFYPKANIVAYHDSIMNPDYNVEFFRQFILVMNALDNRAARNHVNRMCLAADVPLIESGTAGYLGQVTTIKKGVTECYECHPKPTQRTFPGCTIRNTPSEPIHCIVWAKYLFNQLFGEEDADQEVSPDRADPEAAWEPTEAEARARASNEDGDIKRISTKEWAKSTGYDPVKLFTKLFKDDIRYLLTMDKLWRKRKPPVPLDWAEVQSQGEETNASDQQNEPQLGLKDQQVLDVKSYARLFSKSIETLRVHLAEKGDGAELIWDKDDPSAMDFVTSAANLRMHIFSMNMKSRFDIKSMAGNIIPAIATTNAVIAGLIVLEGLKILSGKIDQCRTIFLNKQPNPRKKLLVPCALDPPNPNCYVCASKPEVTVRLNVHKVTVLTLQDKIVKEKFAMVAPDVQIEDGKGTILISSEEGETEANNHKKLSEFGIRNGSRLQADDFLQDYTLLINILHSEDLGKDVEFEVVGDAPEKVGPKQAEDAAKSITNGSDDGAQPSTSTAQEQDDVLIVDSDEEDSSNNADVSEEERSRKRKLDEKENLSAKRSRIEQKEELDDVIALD
T1 sequence (Q9UBE0 1-346 partner): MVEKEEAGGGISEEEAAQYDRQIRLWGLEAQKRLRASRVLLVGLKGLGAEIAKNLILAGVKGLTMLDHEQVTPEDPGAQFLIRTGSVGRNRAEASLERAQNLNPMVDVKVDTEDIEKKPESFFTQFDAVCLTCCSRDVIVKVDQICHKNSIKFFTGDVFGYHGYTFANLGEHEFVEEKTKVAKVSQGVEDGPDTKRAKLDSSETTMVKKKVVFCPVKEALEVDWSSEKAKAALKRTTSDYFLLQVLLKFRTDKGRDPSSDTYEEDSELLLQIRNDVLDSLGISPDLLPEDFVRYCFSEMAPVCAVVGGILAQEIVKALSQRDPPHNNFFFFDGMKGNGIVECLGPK
Assay: SAE HTRF Enzyme Assay
Assay type: biochemical
Settings: for IC50: class symbols A-C; for inhibition at 0.111 µM: read-out: Percent Inhibition
Outline: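 Sumoylation of Ubc9-GST by recombinant human SAE was followed by time-resolved FRET between Eu-cryptate anti-Flag and allophycocyanin anti-GST antibodies. The enzyme step used low ATP (0.5 μM) at pH 7.5 and ran 105 min at 24° C.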

[1] = compound concentration 0.111 μM

SMILES	IC50 [nM]	inhibition at 0.111 µM [1] [%]	Percent Inhibition (compound concentration 0.111 μM, 0.111 µM) [%]
NS(=O)(=O)OC[C@H]1C[C@@H](Nc2ccncc2C(=O)c2ccn(Cc3cccc(Cl)c3)n2)[C@H](O)[C@@H]1O [Compound I-81, {(1R,2R,3S,4R)-4-[(3-{[1-(3-chlorobenzyl)-1H-pyrazol-3-yl]carbonyl}pyridin-4-yl)amino]-2,3-dihydroxycyclopentyl}methyl sulfamate]	< 10	98	–
COC(C)c1cc(C(=O)c2cncnc2N[C@@H]2C[C@H](COS(N)(=O)=O)[C@@H](O)C2)nn1Cc1cccc(Br)c1 (mixture of isomers) [Compound I-369, [(1R,2S,4R)-4-{[5-({1-(3-bromobenzyl)-5-[(1S)-1-methoxyethyl]-1H-pyrazol-3-yl}carbonyl)pyrimidin 4-yl]amino)-2-hydroxycyclopentyl]methyl sulfamate and [(1R,2S,4R)-4-{[5-({1-(3-bromobenzyl)-5-[(1R)-1-methoxyethyl]-1H-pyrazol-3-yl}carbonyl)pyrimidin-4-yl]amino}-2-hydroxycyclopentyl]methyl sulfamate]	< 10	98	–
NS(=O)(=O)OC[C@H]1C[C@@H](Nc2ncncc2C(=O)c2ccn(Cc3cccc(F)c3F)n2)C[C@@H]1O [Compound I-219, {(1R,2S,4R)-4-[(5-{[1-(2,3-difluorobenzyl)-1H-pyrazol-3-yl]carbonyl}pyrimidin-4-yl)amino]-2-hydroxycyclopentyl}methyl sulfamate]	< 10	99	–
NS(=O)(=O)OC[C@H]1C[C@@H](Nc2ncncc2C(=O)c2ccn(Cc3ccc(Cl)s3)c2)[C@@H](F)[C@@H]1O [Compound I-189, [(1R,2R,3R,4R)-4-{[5-({1-[(5-chloro-2-thienyl)methyl]-1H-pyrrol-3-yl}carbonyl)pyrimidin-4-yl]amino}-3-fluoro-2-hydroxycyclopentyl]methyl sulfamate]	< 10	100	–
NS(=O)(=O)OC[C@H]1C[C@@H](Nc2ncncc2C(=O)c2ccn(Cc3cc(C(F)(F)F)ccc3F)n2)[C@H](O)[C@@H]1O [Compound I-230, [(1R,2R,3S,4R)-4-{[5-({1-[2-fluoro-5-(trifluoromethyl)benzyl]-1H-pyrazol-3-yl}carbonyl)pyrimidin-4-yl]amino}-2,3-dihydroxycyclopentyl]methyl sulfamate]	< 10	98	–
NS(=O)(=O)OC[C@@H]1C[C@@H](Nc2ncncc2C(=O)c2ccn(Cc3cccc(Br)c3)c2)C[C@@H]1O [Compound I-319, {(1S,2S,4R)-4-[(5-{[1-(3-Bromobenzyl)-1H-pyrrol-3-yl]carbonyl}pyrimidin-4-yl)amino]-2-hydroxycyclopentyl}methyl sulfamate]	< 10	99	–
NS(=O)(=O)OC[C@H]1C[C@@H](Nc2ncncc2C(=O)c2ccn(Cc3cccc(NC(=O)CCl)c3)n2)[C@H](O)[C@@H]1O [Compound I-67, [(1R,2R,3S,4R)-4-({5-[(1-{3-[(chloroacetyl)amino]benzyl}-1H-pyrazol-3-yl)carbonyl]pyrimidin-4-yl}amino)-2,3-dihydroxycyclopentyl]methyl sulfamate]	< 10	94	–
NS(=O)(=O)OC[C@H]1C[C@@H](Nc2ncncc2C(=O)c2ccn(Cc3cc(Cl)ccc3Cl)n2)C[C@@H]1O [Compound I-289, {(1R,2S,4R)-4-[(5-{[1-(2,5-dichlorobenzyl)-1H-pyrazol-3-yl]carbonyl}pyrimidin-4-yl)amino]-2-hydroxycyclopentyl}methyl sulfamate]	< 10	98	–
Cc1cccc(Cn2nc(C(=O)c3cncnc3N[C@@H]3C[C@H](COS(N)(=O)=O)[C@@H](O)C3)cc2C)c1 [Compound I-248, {(1R,2S,4R)-2-hydroxy-4-[(5-{[5-methyl-1-(3-methylbenzyl)-1H-pyrazol-3-yl]carbonyl}pyrimidin-4-yl)amino]cyclopentyl}methyl sulfamate]	< 10	99	–
NS(=O)(=O)OC[C@H]1C[C@@H](Nc2ncncc2C(=O)c2ccn(Cc3ccc(Cl)c(SC(F)(F)F)c3)n2)[C@H](O)[C@@H]1O [Compound I-126, [(1R,2R,3S,4R)-4-({5-[(1-{4-chloro-3-[(trifluoromethyl)sulfanyl]benzyl}-1H-pyrazol-3-yl)carbonyl]pyrimidin-4-yl}amino)-2,3-dihydroxycyclopentyl]methyl sultamate]	< 10	> 99	–
NS(=O)(=O)OC[C@H]1C[C@@H](Nc2ncncc2C(=O)c2ccn(Cc3ccc(OC(F)(F)F)cc3)n2)C[C@@H]1O [Compound I-276, [(1R,2S,4R)-2-hydroxy-4-{[5-({1-[4-(trifluoromethoxy)benzyl]-1H-pyrazol-3-yl}carbonyl)pyrimidin-4-yl]amino}cyclopentyl]methyl sulfamate]	10 to 100	82	–
NS(=O)(=O)OC[C@H]1C[C@@H](Nc2ncncc2C(=O)c2ccn(Cc3cccc(F)c3F)n2)[C@H](O)[C@@H]1O [Compound I-327, {(1R,2R,3S,4R)-4-[(5-{[1-(2,3-difluorobenzyl)-1H-pyrazol-3-yl]carbonyl}pyrimidin-4-yl)amino]-2,3-dihydroxycyclopentyl}methyl sulfamate]	< 10	99	–
Cn1ccc(C(=O)c2cncnc2N[C@@H]2C[C@H](COS(N)(=O)=O)[C@@H](O)[C@H]2O)n1 [Compound I-345, [(1R,2R,3S,4R)-2,3-dihydroxy-4-({5-[(1-methyl-1H-pyrazol-3-yl)carbonyl]pyrimidin-4-yl}amino)cyclopentyl]methyl sulfamate]	100 to 1000	54	–
Cc1cc(Cn2ccc(C(=O)c3cncnc3N[C@@H]3C[C@H](COS(N)(=O)=O)[C@@H](O)[C@H]3O)n2)no1 [Compound I-169, [(1R,2R,3S,4R)-2,3-dihydroxy-4-{[5-({1-[(5-methylisoxazol-3-yl)methyl]-1H-pyrazol-3-yl}carbonyl)pyrimidin-4-yl]amino}cyclopentyl]methyl sulfamate]	< 10	97	–
NS(=O)(=O)OC[C@@H]1C[C@@H](Nc2ncncc2C(=O)c2ccn(Cc3cccc(Br)c3)n2)C[C@@H]1O [Compound I-2, {(1S,2S,4R)-4-[(5-{[1-(3-bromobenzyl)-1H-pyrazol-3-yl]carbonyl}pyrimidin-4-yl)amino]-2-hydroxycyclopentyl}methyl sulfamate]	–	99	–
NS(=O)(=O)OC[C@H]1C[C@@H](Nc2ncncc2C(=O)c2ccn(Cc3ccc(F)cc3C(F)(F)F)n2)[C@H](O)[C@@H]1O [Compound I-121, [(1R,2R,3S,4R)-4-{[5-({1-[4-fluoro-2-(trifluoromethyl)benzyl]-1H-pyrazol-3-yl}carbonyl)pyrimidin-4-yl]amino}-2,3-dihydroxycyclopentyl]methyl sulfamate]	< 10	94	–
CC(c1cccc(Br)c1)n1ccc(C(=O)c2cncnc2N[C@@H]2C[C@H](COS(N)(=O)=O)[C@@H](O)C2)n1 (single isomer, unassigned) [Compound I-358, [(1R,2S,4R)-4-{[5-({1-[(1S)-1-(3-bromophenyl)ethyl]-1H-pyrazol-3-yl}carbonyl)pyrimidin-4-yl]amino}-2-hydroxycyclopentyl]methyl sulfamate or [(1R,2S,4R)-4-{[5-({1-[(1R)-1-(3-bromophenyl)ethyl]-1H-pyrazol-3-yl}carbonyl)pyrimidin-4-yl]amino}-2-hydroxycyclopentyl]methyl sulfamate]	< 10	–	95
